The values that follow come from BindingDB's records for doi:10.1016/j.bmc.2011.09.058 (National Chemical Laboratory (Csir-Ncl), 2011).

Some results are limits rather than exact numbers.

This assay addresses T1, Papain (Carica papaya, UniProt P00784).
T1 sequence (P00784 whole entry): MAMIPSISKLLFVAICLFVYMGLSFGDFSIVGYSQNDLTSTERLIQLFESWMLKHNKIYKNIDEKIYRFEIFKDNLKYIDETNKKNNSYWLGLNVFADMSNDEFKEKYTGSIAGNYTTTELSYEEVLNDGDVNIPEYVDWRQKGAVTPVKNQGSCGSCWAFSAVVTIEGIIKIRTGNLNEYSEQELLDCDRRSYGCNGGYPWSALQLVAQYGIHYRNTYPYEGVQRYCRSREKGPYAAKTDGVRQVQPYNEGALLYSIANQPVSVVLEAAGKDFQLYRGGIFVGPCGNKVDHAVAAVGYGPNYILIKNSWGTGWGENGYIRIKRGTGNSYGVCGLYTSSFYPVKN
The assay can be described thus: Inhibition of papaya papain using BAPNA as substrate assessed as p-nitroaniline release by spectrophotometric analysis.
A word on the IC50: it is the concentration that inhibits the measured activity by half. As to `CCOP(=O)(CC=C(NC(=O)[C@H](CC(C)C)NC(=O)OC(C)(C)C)c1ccccc1)OCC`, the IC50 was greater than 200 µM.
With `CCOP(=O)(CC=C(NC(=O)[C@H](CC(C)C)NC(=O)OCc1ccccc1)c1ccccc1)OCC`, the IC50 is greater than 200 µM.
The result for `CCOP(=O)(CC=C(NC(=O)[C@H](CC(C)C)NC(=O)OCC1c2ccccc2-c2ccccc21)c1ccccc1)OCC` reads greater than 200 µM; that for `CCOP(=O)(CC=C(NC(=O)[C@H](Cc1c[nH]c2ccccc12)NC(=O)OCc1ccccc1)c1ccccc1)OCC`, greater than 200 µM.
